Measured values taken from patent publication US20230092389A1, “UNIT DOSES, AEROSOLS, KITS, AND METHODS FOR TREATING HEART CONDITIONS BY PULMONARY ADMINISTRATION” (InCarda Therapeutics, Inc., priority 2017, published 2023).

How the values were obtained:
[1] = system: healthy volunteers; experiment: Phase 1 (FLE-001) pharmacodynamics, ECG intervals; format: in vivo, human; settings: for magnitude of QRS prolongation: 1 min post-inhalation; for magnitude of QRS prolongation / maximal QRS interval prolongation: post-hoc population; for prolongation in PR interval duration: Cohort 3, 60 mg eTLD
Experimental: The ECG recordings included: 1) Continuous real-time ECG telemetry for observation of patient safety starting at 12 hours pre-dose and continuing for 12 hours post-dose, 2) 12-lead ECGs for immediate review by medical staff to ascertain the safety of the procedures and drug administration were recorded at pre-specified (or any time as needed) before dosing (pre-dose) and after dosing (post-dose), and 3) continuous 12-lead ECG (cECG, iCardiac Holter monitoring) was recorded for 24 hours, starting 1 hour prior to dosing and up to 24 hours post dosing.

[2] = male, Yorkshire, pig, in vivo, iv, 2 mg/kg

## O=C(NCC1CCCCN1)c1cc(OCC(F)(F)F)ccc1OCC(F)(F)F (stereo not drawn) [flecainide]
[1]; 20 mg eTLD
  magnitude of QRS prolongation: 3.0 ms
[1]; 40 mg eTLD
  magnitude of QRS prolongation: 8.2 ms
[1]; 60 mg eTLD
  magnitude of QRS prolongation: 16 ms
[1]; 2 to 24 hours post-inhalation of 30 mg eTLD, baseline 78±2 msec
  difference of QRS interval duration from pre-dose baseline: < 2 ms
[1]; 8 and 24 hours post-IV infusion
  PR interval: fully returned to pre-drug baseline
[1]; 30 min after completion of inhalation, 20-60 mg eTLD
  QRS interval duration: returned to near pre-dose levels
[1]; 2 hours and beyond post-oral IH flecainide
  PR interval longer than pre-drug baseline: approximately 2 msec
[1]; 2 hours and beyond post-oral IH flecainide, baseline 158.5 msec
  PR interval: 160 ms
[1]; 2 hours following IV infusion, baseline 78±2 msec
  QRS interval duration longer than baseline: 12.5 ms
[1]; 2 hours post-IV infusion, baseline 161±3 msec
  PR interval longer than pre-drug baseline: ~12 ms
[1]; 24 hours following IV infusion
  QRS interval duration longer than baseline: ~7 ms
[1]; Cohort 1, 20 mg eTLD, 1 minute post-dosing
  mean ΔPR: -6 ms
[1]; Cohort 1, 20 mg eTLD, 3 minutes post-dosing
  mean ΔPR: -4.5 ms
[1]; Cohort 1, 20 mg eTLD, 10 minutes to 4 hours after dosing
  mean ΔPR: smaller than −3.0 msec
[1]; Cohort 1, 20 mg eTLD, between 1 and 3 minutes after end of inhalation
  mean ΔQRS: small increase
[1]; Cohort 2, 40 mg eTLD, between 1 and 3 minutes post-dosing
  QRS duration: transient increase
[1]; Cohort 2, 40 mg eTLD, majority of subjects
  time of maximal increase in QRS interval duration: 1 min
[1]; 1 to 5 min
  prolongation in PR interval duration: ~5 ms
[1]; 10 and 15 minutes
  prolongation in PR interval duration: up to 12 msec
[1]; Cohort 5, IV infusion
  non-specific intraventricular conduction delay: 3 of 6 subjects
[1]; Cohort 5, IV infusion 2 mg/kg
  maximal increase in QRS interval duration, mean (±SEM): 34.2 ± 2.4 ms
[1]; Cohort 5, inhalation
  duration of QRS widening: 15 to 30 min
[1]; Cohort 5, inhalation 30 mg eTLD
  maximal increase in QRS interval duration, mean (±SEM): 12.4 ± 2.6 ms
[1]; Cohort 5, intravenous
  duration of QRS widening: > 60 min
[1]; Cohort 5, oral inhalation eTLD 30 mg
  non-specific intraventricular conduction delay: not observed
[1]; IV 2 mg/kg, 10 min infusion (FIG. 34)
  duration of intraventricular conduction delay: 5 to 10 min
[1]; IV infusion 2 mg/kg
  maximal PR interval prolongation: 25 ms
[1]; IV infusion 2 mg/kg (FIG. 36)
  T-wave morphology: T-wave notching
[1]; Part B
  lower plasma concentration by inhalation for QRS prolongation of magnitude achieved by IV (6.2/2.7): 2.3 fold
[1]; eTLD 20 mg
  maximal QRS interval prolongation: 3.5±1.0
[1]; eTLD 30 mg vs ~150 mg IV
  smaller change in QRS interval duration, inhalation vs IV infusion: 2.7 fold
[1]; eTLD 40 mg
  maximal QRS interval prolongation: 10±1.5
[1]; eTLD 60 mg
  maximal QRS interval prolongation: 16±1.4
[1]; end of IV infusion 2 mg/kg, 164±1 msec 45 min prior
  PR interval: 187 ± 6 ms
[1]; inhalation 20, 30, 40 mg eTLD
  T-wave morphology: No changes
[1]; inhalation vs 5 min into IV infusion
  lower plasma level following inhalation at similar ΔQRS: 2.6 fold
[1]; inhaled 30 mg eTLD, 5 min after completion of inhalation
  PR interval prolongation from start of inhalation: 12 ms
[1]; inhaled 20 or 40 mg eTLD
  changes of PR interval duration: Minimal or no changes
[1]; non-steady state, IV and inhalation
  temporal relation between plasma concentration and ΔQRS: changes in QRS interval duration lag those of the peripheral venous concentrations
[1]; oral inhalation 30 mg eTLD
  maximal PR interval prolongation: 12 ms
[1]; subject R222, 40 mg eTLD
  maximal decrease in QRS amplitude (average of several tracings): ~480 μV
  maximal increase in QRS duration (average of several tracings): ~9 ms
[1]; subject R222, 40 mg eTLD, 1 minute post-dosing
  increase in QRS duration (QRSd): 10 ms
[1]; subject R222, 40 mg eTLD, 3 min post-dosing
  decrease in amplitude of the R-wave (QRSa): 400 μV
[2]
  time of peak LV and venous plasma levels: 2 min
